From patent US20080213364A1, “Formulations of Pyridoxal-5'-Phosphate and Methods of Preparation” (Medicure International, Inc., priority 2004, published 2008) come the findings set out here.

The nature of data set [1]: Single-dose pharmacokinetics study, plasma pyridoxal 5′-phosphate. The conditions noted are these: both, human, in vivo. As to the method: (§1) Pharmacokinetics Study—The protocol was designed to first study a single dose of pyridoxal 5′-phosphate at three different dose levels: […] of body weight. Following evaluation of safety and tolerance, the highest tolerated dose was administered once daily for seven consecutive days. The product was manufactured as enteric-coated tablets each containing 250 mg of pyridoxal 5′-phosphate. The dose was calculated based on the body weight and rounded to the nearest 250 mg.
During the single-dose phase, blood samples were collected prior to dosing and 1, 2, 3, 4, 5, 6, 7, 8, 12, 16 and 24 hours following drug administration. During the multi-dose phase, blood samples were drawn each morning prior to dosing and 2 hours post-dose. Following the last dose on day 7, blood samples were drawn after 1, 2, 3, 4, 5, 6, 7, 8, 12, 16 and 24 hours.
Plasma samples were separated and divided into two approximately equal aliquots and stored at −70±10° C. pending shipment (over dry ice) to the analytical laboratory.
(§2) Pharmacokinetic Analysis—The following pharmacokinetic parameters were calculated: area under the curve from time zero to the last measurable concentration (AUC-T), area under the curve from time zero to infinity (AUC-inf), maximal plasma concentration (Cmax), time of maximal plasma concentration (Tmax), elimination constant (Kel), half-life (T½), mean residence time (MRT), clearance (Cl) and volume of distribution (Vd).
Whenever possible, the area under the plasma concentration-time curve was calculated from time zero to the last measurable concentration (AUC T) using the linear trapezoidal method. AUC-T is expressed as ng·h/ml. AUC-T was also normalized for body weight and expressed as ng·h/ml/kg.
The area under the curve from time zero to infinity (AUC-inf) was calculated as the sum of AUC-T+Clast/Kel where Clast represents the last measurable concentration and Kel the elimination rate constant calculated by linear least squares regression using the data points that best represent the terminal linear phase. AUC-inf is expressed as ng·h/ml. AUC-inf was also normalized for body weight and expressed as ng·h/mg/kg.
Cmax is expressed in ng/ml. Cmax was also normalized for body weight and expressed as ng/ml/kg. […]
The oral clearance was evaluated by dividing the dose (mg/kg) by AUC-inf (ng·h/mL). Clearance is expressed as L/h/kg. The actual clearance was also calculated without normalization for body weight and expressed as L/h.
The volume of distribution is actually the Vdarea calculated by dividing the clearance (L/h/kg) by Kel (h-1). Vd is expressed as L/kg and is not corrected for absolute bioavailability. The actual volume of distribution was also calculated without normalization for body weight and expressed in liters. […]

Data set [2] is classed as in vivo. The conditions noted are these: 30 mg/kg daily as enteric coated tablets, Day 1 vs Day 7 parameters. As to the method: as §1
During the single-dose phase, blood samples were collected prior to dosing and 1, 2, 3, 4, 5, 6, 7, 8, 12, 16 and 24 hours following drug administration. […]
as §2
Subjects randomized to the 15 mg/kg group actually received a dose of 14.58±1.11 mg/kg. […] During the multi-dose phase of the study, the number of tablets was calculated prior to the first drug administration and remained constant throughout the duration of the study, regardless of any change in body weight. […]

In the case of `Cc1ncc(COP(=O)(O)O)c(C=O)c1O` [pyridoxal 5′-phosphate], in data set [1] (15 mg/kg), the “mean maximal plasma concentration (mean curve, FIG. 3)” value was determined as 1870 ± 2652 ng/mL and the “time at which mean maximal plasma concentration was reached” value was 6 h. Besides, in data set [1] (60 mg/kg), the “mean maximal plasma concentration (mean curve, FIG. 3)” value was found to be 3922 ± 5457 ng/mL and the “time at which mean maximal plasma concentration was reached” value came to 4 h. For the same compound, in data set [2], the “accumulation upon multiple dosing” value was “does not accumulate upon multiple dosing”.
